This series deals with Yac-1 cell line. Briefly: Cytotoxicity of NK cells cultured in NK cell activation medium including antioxidants, co-culture with Yac-1 cells. To be noted: mouse spleen NK cells cultured 30-60 minutes in medium with 1 mM N-acetylcysteine or 0.5 mM TEMPOL; compared with normal NK cells (control) (FIG. 6).

Description: NK cell activation media were prepared as follows. In an NK cell culture medium obtained by mixing 10% FBS, 1× penicillin/streptomycin, 1× glutamax, 1× HEPES, 0.5 mM sodium pyruvate, 50 μM 2-mercaptoethanol, and 50 ng/ml interleukin-2 (IL-2) in RPMI1640 medium, 1 mM N-acetylcysteine or 0.5 mM 4-hydroxy-2,2,6,6-tetramethylpiperidine 1-oxyl (TEMPOL) was blended.
The Yac-1 cell line was added in RPMI1640 (10% FBS/RPMI1640) medium including 10% FBS, treated with 5 μg/ml Calcein AM (Invitrogen, C1430), and cultured for 1 hour in a cell culture machine at 37° C. in the presence of 5% carbon dioxide conditions to label with fluorescence. Afterwards, the NK cells and fluorescence-labeled Yac-1 cells were mixed in a ratio of 10:1, 5:1, and 1:1 and dispensed in a round bottom 96-well plate (SPL, #34096). Additionally, fluorescence-labeled Yac-1 cells were also dispensed into the wells of the maximum (Maximum, 10% FBS/RPMI1640 including 2% Triton X-100) and minimum (Minimum, 10% FBS/RPMI1640) to calculate the cytotoxicity rate. […] After culture for 4 hours, the medium was mixed well and centrifuged at 100×g for 5 minutes, the supernatant was transferred to a black plate (SPL, #30296), and fluorescence was measured using a fluorescence microplate reader. […]
Cytotoxicity=[(Test fluorescence−minimum fluorescence)/(maximum fluorescence−minimum fluorescence)]×100 [Equation 1] […]

As to `CC1(C)CC(O)CC(C)(C)N1[O]` [Tempol, 4-hydroxy-2,2,6,6-tetramethylpiperidine 1-oxyl], the cytotoxicity entry is “higher cytotoxicity than normal NK cells”.

(Values after US20240408140A1, “ENHANCING ANTICANCER FUNCTION OF NATURAL KILLER CELL THROUGH REGULATION OF ANTIOXIDANT MECHANISM” (priority 2021, published 2024).)
